# Results taken from the supplement of paper PMC10307832.
# Compound: CC(C)(C)c1cc(NC(=O)Nc2ccc(-c3cn4c(n3)sc3cc(OCCN5CCOCC5)ccc34)cc2)no1 [Quizartinib] + CC(=O)Nc1cccc(-n2c(=O)n(C3CC3)c(=O)c3c(Nc4ccc(I)cc4F)n(C)c(=O)c(C)c32)c1 [Trametinib] (partner 0.02 µM)
# Test: relative viability (nuclei count vs DMSO), 5 days (fraction); higher = more cells survive
# Details: first compound 0.1 µM
# In short: (§1)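 Lung cancer cell lines were seeded in 1536-well plates and dosed by pin tool the next day, with either a single drug or a fixed anchor-drug dose combined with five library-drug doses (not always all listed) spaced in √10 steps. Five days later, one step fixed the cells and stained their nuclei (final 0.05% Triton X-100, 1% formaldehyde, 1 ug/ml Hoechst), and nuclei were counted on 4× images. Relative viability is the nuclei count in treated wells divided by the count in vehicle wells, and each value is the median of duplicate plates.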
row,Cell Line,relative viability
1,HCC-44,1.03
2,NCI-H1755,0.755
3,NCI-H1650,0.564
4,ChaGo-K-1,0.865
5,COR-L23,0.543
6,NCI-H2085,0.515
7,NCI-H460,0.0587
8,BEN,1.22
9,PC-3 [JPC-3],0.643
10,LC-2-ad,0.624

# Compound: COCC[n+]1c2c(n(Cc3cnccn3)c1C)C(=O)c1ccccc1C2=O [YM155] + C[C@@H](Oc1cc(-c2cnn(C3CCNCC3)c2)cnc1N)c1c(Cl)ccc(F)c1Cl [Crizotinib] (partner 1 µM)
# Test: as above
# Details: first compound 0.002 µM
# In short: as §1
row,Cell Line,relative viability
1,NCI-H3122,0.269
2,A-427,0.959
3,LOU-NH91,0.735
4,NCI-H1666,1.05
5,NCI-H23,0.527
6,NCI-H838,0.825
7,NCI-H322M,0.822
8,NCI-H441,0.676
9,NCI-H727,0.828
10,SW 1573,0.767
11,201T,0.98
12,HCC-44,0.805
13,NCI-H1755,0.882
14,NCI-H1650,0.924
15,ChaGo-K-1,1.1
16,COR-L23,0.649
17,NCI-H2085,0.698
18,NCI-H460,1.01
19,BEN,0.873
20,PC-3 [JPC-3],0.939
21,LC-2-ad,0.446

# Same assay, conditions: first compound 0.006325 µM
row,Cell Line,relative viability
1,NCI-H3122,0.239
2,A-427,0.839
3,LOU-NH91,0.688
4,NCI-H596,0.965
5,NCI-H23,0.607
6,NCI-H838,0.909
7,NCI-H322M,0.906
8,NCI-H441,0.623
9,NCI-H727,0.821
10,SW 1573,0.877
11,201T,1
12,HCC-44,0.755
13,NCI-H1755,0.833
14,NCI-H1650,0.974
15,ChaGo-K-1,1.06
16,COR-L23,0.569
17,NCI-H2085,0.767
18,NCI-H460,0.803
19,BEN,0.987
20,PC-3 [JPC-3],1.04
21,LC-2-ad,0.428

# Same assay, conditions: first compound 0.02 µM
row,Cell Line,relative viability
1,NCI-H3122,0.257
2,A-427,0.89
3,LOU-NH91,0.731
4,NCI-H596,0.997
5,NCI-H1666,1.01
6,NCI-H23,0.47
7,NCI-H838,0.911
8,NCI-H322M,0.949
9,NCI-H441,0.694
10,NCI-H727,0.868
11,SW 1573,0.902
12,201T,1.01
13,HCC-44,0.845
14,NCI-H1755,0.973
15,NCI-H1650,0.717
16,ChaGo-K-1,1.17
17,COR-L23,0.403
18,NCI-H2085,0.77
19,NCI-H460,0.936
20,BEN,0.863
21,PC-3 [JPC-3],1.06
22,LC-2-ad,0.496

# Same assay, conditions: first compound 0.06325 µM
row,Cell Line,relative viability
1,NCI-H3122,0.272
2,A-427,0.865
3,LOU-NH91,0.727
4,NCI-H596,0.974
5,NCI-H1666,0.879
6,NCI-H23,0.234
7,NCI-H838,0.297
8,NCI-H322M,0.578
9,NCI-H441,0.509
10,NCI-H727,0.738
11,SW 1573,0.581
12,201T,1.03
13,HCC-44,0.776
14,NCI-H1755,0.859
15,NCI-H1650,0.286
16,ChaGo-K-1,0.784
17,COR-L23,0.105
18,NCI-H2085,0.477
19,NCI-H460,0.84
20,BEN,1.05
21,PC-3 [JPC-3],1.1
22,LC-2-ad,0.453

# Compound: CC(C)(C)c1cc(NC(=O)Nc2ccc(-c3cn4c(n3)sc3cc(OCCN5CCOCC5)ccc34)cc2)no1 [Quizartinib] + CC(C)C[C@H](NC(=O)[C@H](Cc1ccccc1)NC(=O)c1cnccn1)B(O)O [Bortezomib] (partner 0.002 µM)
# Test: as above
# Details: first compound 0.001 µM
# In short: as §1
row,Cell Line,relative viability
1,NCI-H3122,1.01
2,A-427,0.911
3,LOU-NH91,0.481
4,NCI-H596,1.15
5,NCI-H1666,0.738
6,NCI-H838,0.458
7,NCI-H322M,1.15
8,NCI-H441,0.476
9,NCI-H727,0.656
10,SW 1573,0.71
11,201T,1.09
12,HCC-44,0.878
13,NCI-H1755,0.858
14,NCI-H1650,0.139
15,ChaGo-K-1,0.693
16,COR-L23,0.965
17,NCI-H2085,0.981
18,NCI-H460,0.881
19,BEN,0.583
20,PC-3 [JPC-3],0.782
21,LC-2-ad,0.955

# Same assay, conditions: first compound 0.003162 µM
row,Cell Line,relative viability
1,NCI-H3122,1
2,A-427,0.952
3,LOU-NH91,0.509
4,NCI-H596,0.92
5,NCI-H1666,0.753
6,NCI-H23,0.937
7,NCI-H838,0.763
8,NCI-H322M,1.26
9,NCI-H441,0.466
10,SW 1573,0.804
11,201T,1.09
12,HCC-44,0.937
13,NCI-H1755,0.979
14,NCI-H1650,0.184
15,ChaGo-K-1,1.16
16,COR-L23,0.908
17,NCI-H2085,0.994
18,NCI-H460,0.987
19,BEN,0.677
20,PC-3 [JPC-3],0.822
21,LC-2-ad,0.954

# Same assay, conditions: first compound 0.01 µM
row,Cell Line,relative viability
1,NCI-H3122,1.09
2,A-427,1.06
3,LOU-NH91,0.538
4,NCI-H596,1.1
5,NCI-H1666,0.823
6,NCI-H23,1.08
7,NCI-H838,0.65
8,NCI-H322M,1.27
9,NCI-H441,0.451
10,NCI-H727,0.955
11,SW 1573,1.24
12,201T,1.1
13,HCC-44,0.941
14,NCI-H1755,0.956
15,NCI-H1650,0.207
16,ChaGo-K-1,1.06
17,COR-L23,1.14
18,NCI-H2085,1.1
19,NCI-H460,1.24
20,BEN,0.703
21,PC-3 [JPC-3],0.859
22,LC-2-ad,1.11

# Same assay, conditions: first compound 0.03162 µM
row,Cell Line,relative viability
1,NCI-H3122,1.02
2,A-427,1
3,LOU-NH91,0.433
4,NCI-H596,1.19
5,NCI-H1666,0.511
6,NCI-H23,0.97
7,NCI-H838,0.926
8,NCI-H322M,1.24
9,NCI-H441,0.576
10,NCI-H727,0.767
11,SW 1573,0.684
12,201T,1.09
13,HCC-44,0.838
14,NCI-H1755,0.973
15,COR-L23,0.902
16,NCI-H2085,0.952
17,BEN,0.766
18,PC-3 [JPC-3],0.791
19,LC-2-ad,1.06

# Same assay, conditions: first compound 0.1 µM
row,Cell Line,relative viability
1,NCI-H3122,0.983
2,A-427,1.01
3,LOU-NH91,0.513
4,NCI-H596,1.2
5,NCI-H1666,0.813
6,NCI-H23,0.888
7,NCI-H838,0.534
8,NCI-H322M,1.15
9,NCI-H441,1.57
10,NCI-H727,0.833
11,SW 1573,1.01
12,201T,1.12
13,HCC-44,0.775
14,NCI-H1755,0.969
15,NCI-H1650,0.191
16,ChaGo-K-1,1.28
17,COR-L23,0.889
18,NCI-H2085,0.982
19,NCI-H460,0.68
20,BEN,0.83
21,PC-3 [JPC-3],0.841
22,LC-2-ad,0.996
